According to patent US20090246169A1, “INDOLOPYRIDINES AS EG5 KINESIN MODULATORS” (priority 2006, published 2009):

How the values were obtained:
[1] = tested on: RKO p27 colon adenocarcinoma cells, induced (arrested); assay: Alamar Blue cell viability assay, RKO p27 induced (arrested) by Ponasterone A; format: cell-based; details: Homo sapiens, RKOp27; anti-proliferative/cytotoxic activity, 72 hours, 10 μM Ponasterone A; read-out: −log EC50 [mol/l] RKO p27 induced (arrested) (converted)
Experimental: To determine the cell cycle specific mode of action, subclones of RKO colon adenocarcinoma cells (RKOp21 or RKOp27 as described by Schmidt et al. in Oncogene 19, 2423-2429; 2000) are seeded into 96 well flat bottom plates at a density of 16000 cells per well in a volume of 50 μl per well in DMEM growth medium with 10% FCS containing 10 μM Ponasterone A. 24 hours after seeding the 50 μl each of the compound dilutions in DMEM medium are added into each well of the 96-well plate. Each compound dilution is tested as triplicates. Wells containing untreated control cells are filled with 50 μl DMEM medium containing 1% DMSO. The cells are then incubated with the substances for 72 hours at 37° C. in a humidified atmosphere containing 5% carbon dioxide. To determine the viability of the cells, 10 μl of an Alamar Blue solution (Biosource) are added and the fluorescence is measured at an extinction of 544 nm and an emission of 590 nm. […] Viabilities are expressed as % values. […]
Representative values for anti-proliferation/cytotoxicity [measured as −log EC50 (mol/l)] determined in the aforementioned assays follow from the following tables B1 and B2, in which the numbers of the compounds correspond to the numbers of the examples.

[2] = target: T1, Eg5 kinesin motor domains (Homo sapiens, UniProt P52732); assay: Eg5 ATPase activity assay (Malachite green); format: biochemical; details: 300 μM ATP, 250 nM microtubules, 30 min room temperature, read-out: Inhibition of Eg5 activity, −log IC50 [mol/l] (converted)
T1 construct: The ATPase activity of Eg5 kinesin motor domains (Cytoskeleton, cat. No. EG01); purchased Cytoskeleton EG01
T1 sequence (P52732 18-359 limits assumed): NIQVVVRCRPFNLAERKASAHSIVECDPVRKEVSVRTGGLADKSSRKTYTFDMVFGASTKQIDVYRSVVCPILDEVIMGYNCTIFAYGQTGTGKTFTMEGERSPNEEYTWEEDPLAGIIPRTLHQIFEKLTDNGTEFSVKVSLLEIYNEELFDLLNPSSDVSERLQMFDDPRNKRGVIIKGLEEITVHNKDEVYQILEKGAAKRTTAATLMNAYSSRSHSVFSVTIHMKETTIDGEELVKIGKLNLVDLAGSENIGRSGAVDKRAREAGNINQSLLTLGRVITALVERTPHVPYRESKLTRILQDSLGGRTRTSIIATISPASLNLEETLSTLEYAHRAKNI
Experimental: The ATPase activity of Eg5 kinesin motor domains (Cytoskeleton, cat. No. EG01) can be used to monitor the effects of modulating agents. The test compounds are dissolved as 10 mM solutions in dimethylsulfoxide (DMSO). 2 μl of appropriate DMSO dilutions of the test compounds are added to each well of a 96 well flat bottom plate. Each compound dilution is tested as triplicates. The reagents are added and the final reaction of the standard assay contains 15 mM Pipes, pH 6.8, 5.0 mM MgCl2, 0.5 mM KCl, 1 mM EGTA, 0.1 mg/ml BSA, 1 μM Paclitaxel, 250 nM preformed microtubules (Cytoskeleton, cat. No. MT001), 300 μM ATP, and Eg5 protein (50 ng) in a reaction volume of 100 μl. The controls include buffer wells with ATP and 2% DMSO. Reactions are started by the addition of ATP, incubated at room temperature for 30 min., and terminated by removing 20 μl of the reaction volume and adding it to 80 μl of 1 M perchloric acid, followed by the addition of 80 μl Malachite green reagent. […] The reactions are incubated for a further 20 min. and then read at 615 nm.
The corresponding IC50 values of the compounds for Eg5 inhibition are determined from the concentration-effect curves.
Representative inhibitory values [measured as −log IC50 (mol/l)] determined in the aforementioned assay follow from the following table A, in which the numbers of the compounds correspond to the numbers of the examples.

[3] = tested on: RKO p27 colon adenocarcinoma cells, uninduced (proliferating); assay: Alamar Blue cell viability assay, RKO p27 uninduced (proliferating); format: cell-based; details: Homo sapiens, RKOp27; anti-proliferative/cytotoxic activity, 72 hours, without Ponasterone A; read-out: −log EC50 [mol/l] RKO p27 uninduced (proliferating) (converted)
Experimental: The anti-proliferative/cytotoxic activity of the compounds described herein can be tested on subclones of RKO human colon adenocarcinoma cells (Schmidt et al., Oncogene 19, 2423-2429; 2000) using the Alamar Blue cell viability assay (described in O'Brien et al. Eur J Biochem 267, 5421-5426, 2000). The compounds are dissolved as 10 mM solutions in DMSO and subsequently diluted in semi-logarithmic steps. DMSO dilutions are further diluted 1:100 into Dulbecco's modified Eagle's medium (DMEM) containing 10% fetal calf serum to a final concentration twice as much as the final concentration in the test. […] To determine the viability of the cells, 10 μl of an Alamar Blue solution (Biosource) are added and the fluorescence is measured at an extinction of 544 nm and an emission of 590 nm. […] Viabilities are expressed as % values. […]
To determine the cell cycle specific mode of action, subclones of RKO colon adenocarcinoma cells (RKOp21 or RKOp27 as described by Schmidt et al. in Oncogene 19, 2423-2429; 2000) are seeded into 96 well flat bottom plates at a density of 16000 cells per well in a volume of 50 μl per well in DMEM growth medium with 10% FCS containing 10 μM Ponasterone A. 24 hours after seeding the 50 μl each of the compound dilutions in DMEM medium are added into each well of the 96-well plate. […] Viabilities are expressed as % values. […]

[4] = tested on: RKO p21 colon adenocarcinoma cells, uninduced (proliferating); assay: Alamar Blue cell viability assay, RKO p21 uninduced (proliferating); format: cell-based; details: Homo sapiens; anti-proliferative/cytotoxic activity, 72 hours, without Ponasterone A; read-out: −log EC50 [mol/l] RKO p21 uninduced (proliferating) (converted)
Outline: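 Proliferating RKO subclones, no Ponasterone A inducer, seeded in DMEM/10% FCS and dosed after 24 h with semi-log dilutions in triplicate, 72 h at 37 °C, 5% CO2. Viability by Alamar Blue fluorescence (544/590 nm) vs untreated cells; EC50 from dose-response curves.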

| IC50 [2] | Structure (SMILES) | EC50 [1] | EC50 [3] | EC50 [4] |
| --- | --- | --- | --- | --- |
| 31.6 nM | COc1ccc2[nH]c3c(c2c1)C[C@@]1(C)C(=O)N(CCN(C)C)C(=O)N1[C@@H]3c1ccccc1 (racemic) [Example 1, (3aSR,10RS)-2-(2-Dimethylamino-ethyl)-6-methoxy-3a-methyl-10-phenyl-3a,4,9,10-tetrahydro-2,9,10a-triaza-cyclopenta[b]fluorene-1,3-dione] | ≥ 10000 nM | 63.1 nM |  |
|  | COc1ccc2[nH]c3c(c2c1)C[C@@]1(C)C(=O)N(CCCN2CCCCCC2)C(=O)N1[C@@H]3c1ccccc1 (racemic) [Example 78, (3aSR, 10RS)-2-(3-Azepan-1-yl-propyl)-6-methoxy-3a-methyl-10-phenyl-3a,4,9,10-tetrahydro-2,9,10a-triaza-cyclopenta[b]fluorene-1,3-dione] |  |  | ≤ 1000 nM |
|  | C#CC(C)NCCN1C(=O)N2[C@H](c3ccccc3)c3[nH]c4ccc(OC)cc4c3C[C@@]2(C)C1=O (stereo partly drawn) [Example 48, (3aSR, 10RS)-6-Methoxy-3a-methyl-2-[2-(R)-1-methyl-prop-2-ynylamino)-ethyl]-10-phenyl-3a,4,9,10-tetrahydro-2,9,10a-triaza-cyclopenta [b]fluorene-1,3-dione and (3aSR, 10RS)-6-Methoxy-3a-methyl-2-[2-(S)-1-methyl-prop-2-ynylamino)-ethyl]-10-phenyl-3a,4,9,10-tetra-hydro-2,9,10a-triaza-cyclo-penta[b]fluorene-1,3-dione] |  |  | ≤ 1000 nM |
|  | COc1ccc2[nH]c3c(c2c1)C[C@@]1(C)C(=O)N(CCCNCC(F)F)C(=O)N1[C@@H]3c1ccccc1 [Example 50, (3aS, 10R)-2-[3-(2,2-Difluoro-ethylamino)-propyl]-6-methoxy-3a-methyl-10-phenyl-3a,4,9,10-tetrahydro-2,9,10a-triaza-cyclopenta[b] fluorene-1,3-dione] |  |  | ≤ 1000 nM |
